Measured values published in paper PMC8080350, “Rhodanine-3-acetamide derivatives as aldose and aldehyde reductase inhibitors to treat diabetic complications: synthesis, biological evaluation, molecular docking and simulation studies” (BMC Chemistry, 2021).
Read-outs that look alike come from different tables or passages of the source.

Experiments:
[1] = biological target: aldehyde reductase (ALR1) (Ovis aries, UniProt A0ACI6RLT8); assay: ALR1 enzyme inhibition assay; type: biochemical, lamb; details: for selectivity towards ALR1 over ALR2: from IC50 values on ALR1 and ALR2
Sequence of aldehyde reductase (ALR1) (A0ACI6RLT8 entry or part of it): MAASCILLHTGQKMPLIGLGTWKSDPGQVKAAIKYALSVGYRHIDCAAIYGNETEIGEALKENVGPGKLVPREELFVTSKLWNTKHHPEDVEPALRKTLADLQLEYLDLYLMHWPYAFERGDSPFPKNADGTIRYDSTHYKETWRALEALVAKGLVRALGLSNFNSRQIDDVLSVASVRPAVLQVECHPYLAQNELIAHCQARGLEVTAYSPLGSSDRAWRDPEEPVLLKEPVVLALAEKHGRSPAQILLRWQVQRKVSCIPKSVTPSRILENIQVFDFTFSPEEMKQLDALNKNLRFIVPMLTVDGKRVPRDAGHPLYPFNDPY
Procedure: (§1) The newly synthesized of 5-benzylidene rhodanine-3-acetamide derivatives 3(a–g) were evaluated for in vitro enzyme inhibitory potential on aldehyde and aldose reductase enzymes. […] IC50 ± SEM (µM) values were calculated for the compounds showing more than 50% inhibition against both the isozymes, (Table 1).
(§2) All required chemicals used in the enzyme extraction procedure were of high analytical grade. Enzyme inhibitory assay was performed on ELISA microplate reader at 340 nm and 96 well-plates were used for the sample analysis. Micropipettes from Gilson were used for sample loading. Sodium-D-glucoronate and D,L-glyceraldehyde were used as substrates along with a cofactor i.e. NADPH (nicotinamide adenine dinucleotide phosphate) from Sigma Aldrich.
Aldehyde reductase enzyme was extracted from lamb kidney and the cortical part was separated carefully. The cortex was homogenized in triple volume of extraction buffer (2.0 mM EDTA, 0.25 M sucrose, 10 mM sodium phosphate and 2.5 mM β-mercaptoethanol at pH 7.2). The homogenate was centrifuged at 12,000 rpm at 4 °C for 30 min, the insoluble precipitates were discarded and the supernatant was saturated with 40%, 50% and 75% ammonium sulfate respectively and after each addition the solution was centrifuged at 12,000 rpm at 4 °C for 30 min, each time the pallet was discarded and for the last saturation the supernatant was taken and dialyzed overnight in extraction buffer. Next day the protein content was calculated via Bradford method and the crude aldehyde reductase was stored at − 80 °C [30].
The assay was performed on ELISA (Bio-Tek ELx800TM Instrument, Inc. USA) based spectrophotometric analysis in 96 well plate. The assay mixture was composed of 20 µL buffer (100 mM potassium dihydrogen phosphate pH 6.2), 10 µL test compound (1 mM), 70 µL enzyme and incubated for 10 min at 37 °C followed by addition of 40 µL Glucoronate 50 mM (as a substrate) and 50 µL (0.5 mM) NADPH (nicotinamide adenine dinucleotide phosphate) as a co-factor. After 30 min incubation optical density was measured at 340 nm.
(§3) Results were analyzed by graph pad prism® software to calculate IC50 and percentage inhibition was calculated by the following formula.
(§4) % Inhibition = […].

aldose reductase (ALR2) = biological target: T1, aldose reductase (ALR2) (Bos taurus, UniProt P16116); assay: ALR2 enzyme inhibition assay; type: biochemical, calf; details: for IC50: substrate D,L-glyceraldehyde, cofactor NADPH, pH 6.2, 340 nm, read-out: ALR2 IC50 ± SEM
T1 construct: The enzyme aldose reductase was extracted from calf lenses; from tissue; host or cells: calf lenses
Procedure: as §1, §2
The enzyme aldose reductase was extracted from calf lenses. 200–300 g lenses were added to triple volume of cold water and homogenized for 20 min. The homogenate was then centrifuged at 10,000 rpm for 15 min at 4 °C. The insoluble precipitates were discarded and the supernatant was saturated with 70% ammonium sulfate and after centrifugation at 10,000 rpm at 4 °C for 15 min the supernatant was dialyzed overnight and the protein contents was calculated via Bradford method and the crude aldose reductase was stored at −80 °C [31].
The assay was performed on ELISA (Bio-Tek ELx800™ Instrument, Inc. USA) based spectrophotometric analysis in 96 well plate. The assay mixture was composed of 20 µL buffer (100 mM potassium dihydrogen phosphate pH 6.2), 10 µL test compound (1 mM), 70 µL enzyme and incubated for 10 min at 37 °C followed by addition of 40 µL substrate (D,L-glyceraldehyde 50 mM for ALR2) and 50 µL NADPH (0.5 mM) (nicotinamide adenine dinucleotide phosphate) as a co-factor. After 30 min incubation optical density was measured at 340 nm.
as §3, §4

[2] = substrate sodium D-glucuronate, cofactor NADPH, pH 6.2, 340 nm, read-out: ALR1 IC50 ± SEM

Compound	IC50 [1, 2] [µM]	IC50 (aldose reductase (ALR2)) [µM]	melting point [°C]	selectivity towards ALR2 over ALR1 (aldose reductase (ALR2); from IC50 values on ALR1 and ALR2)	selectivity towards ALR1 over ALR2 [1]	IC50 [1] [µM]
COc1cc(/C=C2\SC(=S)N(CC(=O)N3CCOCC3)C2=O)ccc1O [Compound 3b, (Z)-5-(4-hydroxy-3-methoxybenzylidene)-3-(2-morpholino-2-oxoethyl)-2-thioxothiazolidin-4-one]	6.07 ± 0.05	19.2 ± 0.08	211 to 213	–	–	–
COc1cc(/C=C2\SC(=S)N(CC(=O)Nc3ccc(C(=O)O)c(O)c3)C2=O)ccc1O [Compound 3c, 2-Hydroxy-4-({[(Z)-5-(4-hydroxy-3-methoxybenzylidene)-4-oxo-2-thioxo-1,3-thiazolidin-3-yl]acetyl}amino)benzoic acid]	2.38 ± 0.02	6.38 ± 0.01	–	–	–	–
COc1ccc(/C=C2\SC(=S)N(CC(=O)N3CCOCC3)C2=O)cc1 [Compound 3f, (Z) 5-(4-methoxybenzylidene)-3-(2-morpholino-2-oxoethyl)-2-thioxothiazolidin-4-one]	2.18 ± 0.03	0.12 ± 0.01	203 to 205	selective towards ALR2	–	–
CC1=C(CC(=O)O)c2cc(F)ccc2/C1=C\c1ccc([S+](C)[O-])cc1 (centres unmarked) [Sulindac, reference compound]	–	0.29 ± 0.08	–	–	–	–
CCCC(CCC)C(=O)O [Valproic acid, reference compound]	–	–	–	–	–	57.4 ± 0.89
(Z) 5-(4-hydroxy-3-methoxybenzylidene)-3-(2-pyrrolidino-2-oxoethyl)-2-thioxothiazolidin-4-one [Compound 3g]	2.22 ± 0.04	2.42 ± 0.03	–	–	–	–

The next lines start with results.

IC50 [1, 2] [µM]	IC50 (aldose reductase (ALR2)) [µM]	melting point [°C]	selectivity towards ALR2 over ALR1 (aldose reductase (ALR2); from IC50 values on ALR1 and ALR2)	Compound	selectivity towards ALR1 over ALR2 [1]	IC50 [1] [µM]
5.38 ± 0.07	0.25 ± 0.04	–	–	COc1cc(/C=C2\SC(=S)N(CC(=O)Nc3ccccc3)C2=O)ccc1O [Compound 3a, (Z)-5-(4-hydroxy-3-methoxybenzylidene)-3-(2-anilino-2-oxoethyl)-2-thioxothiazolidin-4-one]	–	–
3.76 ± 0.09	7.36 ± 0.02	217 to 219	–	COc1cc(/C=C2\SC(=S)N(CC(=O)Nc3ccc(C(=O)O)cc3)C2=O)ccc1O [Compound 3d, 4-({[(Z)-5-(4-hydroxy-3-methoxybenzylidene)-4-oxo-2-thioxo-1,3-thiazolidin-3-yl]acetyl}amino)benzoic acid]	more selective and potent inhibitors of ALR1	–
2.87 ± 0.01	12.71 ± 0.09	190 to 192	–	COc1ccc(/C=C2\SC(=S)N(CC(=O)Nc3ccccc3)C2=O)cc1 [Compound 3e, (Z) 5-(4-methoxybenzylidene)-3-(2-anilino-2-oxoethyl)-2-thioxothiazolidin-4-one]	more selective and potent inhibitors of ALR1	–
